For one test, the target named is PKD isoforms. The test can be described thus: Radiometric PKD kinase assay, summary statement for PKD isoforms. The format is biochemical, human. As to conditions: approximate, all PKD isoforms; read-out: concentration that blocked 50% of PKD activity.
A further test has as its system PC3 cells. As to the kind of experiment: Wound healing assay (cell migration). As to conditions: PC3, 30 µM, 22 h after wounding; control completely closed. It counts as cell-based. As for the experimental part: (§1) A.1-NA- PP1 blocked prostate cancer cell migration. PC3 cells were grown to confluence in 6-well plates. Monolayer was wounded and imaged immediately (0 h). […] Percentage wound healing was calculated as the percent of healed wound area as compared to the original wound. […] After 20 h, noninvasive cells were removed and invasive cells were fixed in 100% methanol, stained in 0.4% hematoxylin solution, and photographed. The number of cells that invaded the Matrigel matrix was determined by cell counts in 6 fields relative to the number of cells that migrated through the control insert. Percentage invasion was calculated as the percent of the cells invaded through Matrigel inserts vs. the total cells migrated through the control inserts. C. […] DU145 cells were infected with null, PKD1, and PKD3 adenoviruses (Adv-null, Adv-PKD1, and Adv-PKD3) at 100 MOI. After 24 h, cells were replated in control and Matrigel inserts, and a Matrigel invasion assay was conducted as described above. The overexpression of PKD1 and PKD3 was confirmed by Western blotting analysis (images below the graphs). […]
PC3 or DU145 cells were grown to confluence in 6-well plates. […] The wound gap was measured, and % wound healing was calculated. The average % wound healing was determined based on at least 6 measurements of the wound gap.

A further test relates to DU145 cells. As to the kind of experiment: Matrigel invasion assay. It counts as cell-based. The conditions noted are these: Homo sapiens, DU-145, 20 h, read-out: inhibition of cell invasion compared with control. As for the experimental part:
as §1, with “MOI.” for “MOI. After 24 h, cells were replated in control and Matrigel inserts, and a Matrigel invasion assay was conducted as described above. The overexpression of PKD1 and PKD3 was confirmed by Western blotting analysis (images below the graphs).”
DU145 cells (4.0×10^4 cells/ml) in RPMI containing 0.1% fetal bovine serum (FBS) were seeded into the top chamber of BioCoat control inserts (pore size 8 µm) or BioCoat Matrigel invasion inserts with Matrigel-coated filters (BD Pharmingen). […] After staining, cells were counted under a microscope (200× magnification). The percentage invasion was determined by cell counts in […] of the number of cells that invaded the Matrigel matrix relative to the number of cells that migrated through the control insert.

Test [1] relates to DU145 cells infected with Adv-PKD1 or Adv-PKD3. The format is cell-based.
Description: After 20 h, noninvasive cells were removed and invasive cells were fixed in 100% methanol, stained in 0.4% hematoxylin solution, and photographed. The number of cells that invaded the Matrigel matrix was determined by cell counts in 6 fields relative to the number of cells that migrated through the control insert. Percentage invasion was calculated as the percent of the cells invaded through Matrigel inserts vs. the total cells migrated through the control inserts. […] DU145 cells were infected with null, PKD1, and PKD3 adenoviruses (Adv-null, Adv-PKD1, and Adv-PKD3) at 100 MOI. After 24 h, cells were replated in control and Matrigel inserts, and a Matrigel invasion assay was conducted as described above. […] All the above experiments were repeated at least three times and data from a representative experiment are shown.
Test [2] relates to PC3 prostate cancer cells. As to the kind of experiment: Cell proliferation assay (cell counts). It counts as cell-based. As to conditions: 30 µM, starting at day 2 to day 6. As for the experimental part:
PKD has emerged as a promising therapeutic target for cancer. […] Cell proliferation was determined by treating the cells at 30 µM concentration of agent, and then cell number was counted for six consecutive days in the presence and absence of inhibitor.
PC3 cells were plated in triplicates in 24-well plates. Cells were allowed to attach overnight. […] Cells were counted daily for a total of 5 days. Fresh media and inhibitor were added every 2 days. The means of triplicate determinations were plotted over time. The experiment was repeated twice and results from one representative experiment are shown. […] PC3 cells were seeded into 96-well plates (3000 cells/well) and were then incubated in media containing 0.3–100 µM inhibitors for 72 h. MTT solution was added to each well and incubated for 4 h. Optical density was read at 570 nm to determine cell viability. The IC50 was determined as the mean of two independent experiments for each compound. C. […] Cell cycle distribution was determined by flow cytometry after propidium iodide labeling of fixed cells. Statistical significance was determined by unpaired t-test and is indicated. **, p<0.01; ***, p<0.001. […]
Proliferation of PC3 cells was measured by counting the number of viable cells upon trypan blue staining as previously described. […] The labeled cells were analyzed using a FACSCalibur flow cytometer (BD Biosciences).

The next test addresses T1, PKD1 (Homo sapiens, UniProt Q15139).
T1 construct: GST; purchased Enzo Life sciences (Farmingdale, NY)
T1 sequence (Q15139 1-912): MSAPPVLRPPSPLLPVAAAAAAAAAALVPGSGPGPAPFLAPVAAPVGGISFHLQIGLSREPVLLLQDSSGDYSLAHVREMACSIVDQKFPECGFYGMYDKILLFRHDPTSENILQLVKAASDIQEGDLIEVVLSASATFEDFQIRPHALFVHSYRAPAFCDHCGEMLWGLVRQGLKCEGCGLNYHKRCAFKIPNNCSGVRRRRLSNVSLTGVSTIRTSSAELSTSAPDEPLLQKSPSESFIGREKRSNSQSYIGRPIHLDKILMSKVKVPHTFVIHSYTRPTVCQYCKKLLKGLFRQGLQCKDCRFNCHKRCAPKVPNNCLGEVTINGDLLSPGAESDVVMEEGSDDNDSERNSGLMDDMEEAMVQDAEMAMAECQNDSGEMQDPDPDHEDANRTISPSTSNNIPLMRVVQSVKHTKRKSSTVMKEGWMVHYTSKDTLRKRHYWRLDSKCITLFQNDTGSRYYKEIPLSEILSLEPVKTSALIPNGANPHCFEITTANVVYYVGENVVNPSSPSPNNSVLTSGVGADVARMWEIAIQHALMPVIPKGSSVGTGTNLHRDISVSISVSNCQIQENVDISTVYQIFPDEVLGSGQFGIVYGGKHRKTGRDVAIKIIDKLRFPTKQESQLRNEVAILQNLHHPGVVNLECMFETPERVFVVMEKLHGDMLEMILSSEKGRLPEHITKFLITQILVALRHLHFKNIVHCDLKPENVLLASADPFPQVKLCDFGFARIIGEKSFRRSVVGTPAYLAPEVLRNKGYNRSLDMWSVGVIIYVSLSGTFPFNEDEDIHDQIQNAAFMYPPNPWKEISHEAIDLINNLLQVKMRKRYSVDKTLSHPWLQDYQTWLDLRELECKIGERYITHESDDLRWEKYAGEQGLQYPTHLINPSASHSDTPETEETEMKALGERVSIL
The test can be described thus: Radiometric PKD kinase assay, 10-point IC50. It counts as biochemical. As for the experimental part: Phosphorylation of HDAC5 was detected in a kinase reaction having 1 µCi [γ-^32P] […] The reaction was incubated at 30°C for 10 minutes and 25 µL of the reaction was spotted on Whatman P81 filter paper. The filter paper was washed 3 times in 0.5% phosphoric acid, air dried and counted using Beckman LS6500 multipurpose scintillation counter. Percent PKD1 inhibition was graphed using GraphPad Prism software 5.0.

Experimental findings from article PMC3781056, “New Pyrazolopyrimidine Inhibitors of Protein Kinase D as Potent Anticancer Agents for Prostate Cancer Cells” (PLoS ONE, 2013) are described below.

Where two headings read alike, the source gives them in different places.

Description for PKD isoforms: Recombinant human PKD1, 2, or 3 proteins were incubated in a mixture containing a peptide substrate derived from a PKD substrate, HDAC-5, and 10 different concentrations of the two compounds.

Consider `CC(C)(C)n1nc(-c2cccc3ccccc23)c2c(N)ncnc21` [Compound 1-NA-PP1, 1-(t-Butyl)-3-(naphthalen-1-yl)-1H-pyrazolo[3,4-d]pyrimidin-4-amine], for which, at PKD isoforms, the IC50 is approximately 100 nM. Further, the “wounded area remaining open” value in the test on PC3 cells is given as 88.6%. Besides, the inhibition (usually the drop in the measured response relative to a control, in per cent) at 30 µM in the test with DU145 cells was more than 60%. Moreover, the “effect of PKD1 or PKD3 overexpression on inhibition of cell invasion” value in test [1] is “completely reversed”. Besides, the “effect on PC3 cell proliferation (cell counts)” value in test [2] was “drastic growth arrest”.
Regarding `O=C(c1ccc(Nc2nccc(-c3cc4ccccc4s3)n2)cc1)N1CCC(N2CCCC2)CC1` [IKK-16, reference compound], the IC50 was 154 nM on PKD1 (mean ± SEM, read-out: IC50 PKD1) and 162 nM on PKD1 (value in the figure, read-out: PKD1 IC50).
